Measured values published in PubChem BioAssay AID1745844 (Carcinogenic Potency Database (CPDB), 2022).

Test system: rodent lifetime carcinogenesis bioassay, tumor incidence TD50
Assay: chronic cancer bioassays in animals – CPDB, compiled studies (AID 1745844)
Settings: rat, strain Fischer 344, in feed

Question: Which TD50 (females, site: liver, lesion: hepatocholangiocarcinoma, dosed 103 weeks, study length 104 weeks) does the source give for `Nc1c(Br)cc(Br)c2c1C(=O)c1ccccc1C2=O` here?
Answer: 566 mg/kg/day

Question: What about the TD50 (females, site: rectum, lesion: adenocarcinoma, dosed 103 weeks, study length 104 weeks) of the same compound?
Answer: 420 mg/kg/day

Question: What about the TD50 (females, site: rectum, lesion: polypoid adenoma, dosed 40 weeks, study length 66 weeks) of the same compound?
Answer: 217 mg/kg/day

Question: What about the TD50 (females, site: rectum, lesion: polypoid adenoma, dosed 103 weeks, study length 104 weeks) of the same compound?
Answer: 74 mg/kg/day

Question: What about the TD50 (females, site: skin, lesion: squamous-cell papilloma, dosed 103 weeks, study length 104 weeks) of the same compound?
Answer: 2600 mg/kg/day

Question: What about the TD50 (females, site: urinary bladder, lesion: transitional-cell carcinoma + transitional-cell papilloma + transitional epithelium, squamous-cell carcinoma + transitional ep, dosed 66 weeks, study length 66 weeks) of the same compound?
Answer: 2190 mg/kg/day

Question: What about the TD50 (females, site: urinary bladder, lesion: transitional-cell carcinoma + transitional-cell papilloma + transitional epithelium, squamous-cell carcinoma + transitional ep, dosed 103 weeks, study length 104 weeks) of the same compound?
Answer: 304 mg/kg/day

Question: And the TD50 (females, site: urinary bladder, lesion: transitional-cell carcinoma, dosed 66 weeks, study length 66 weeks)?
Answer: 4830 mg/kg/day

Question: And the TD50 (females, site: urinary bladder, lesion: transitional-cell carcinoma, dosed 103 weeks, study length 104 weeks)?
Answer: 656 mg/kg/day

Question: What about the TD50 (females, site: urinary bladder, lesion: transitional-cell papilloma, dosed 103 weeks, study length 104 weeks) of the same compound?
Answer: 782 mg/kg/day

Question: What about the TD50 (males, site: any site (literature study), lesion: several types, types named in the paper, dosed 39 weeks, study length 66 weeks) of the same compound?
Answer: 123 mg/kg/day

Question: And the TD50 (males, site: any site (literature study), lesion: several types, types named in the paper, dosed 66 weeks, study length 66 weeks)?
Answer: 193 mg/kg/day

Question: What about the TD50 (males, site: any site (literature study), lesion: several types, types named in the paper, dosed 103 weeks, study length 104 weeks) of the same compound?
Answer: 130 mg/kg/day

Question: What about the TD50 (males, site: colon + kidney + liver + rectum + urinary bladder, lesion: adenocarcinoma + polypoid adenoma + tubule adenoma + tubule carcinoma + hepatocholangiocarcinoma + hepatocellular adenoma + hepatoce, dosed 103 weeks, study length 104 weeks) of the same compound?
Answer: 54.6 mg/kg/day

Question: What about the TD50 (males, site: colon + rectum, lesion: adenocarcinoma, dosed 66 weeks, study length 66 weeks) of the same compound?
Answer: 1870 mg/kg/day

Question: What about the TD50 (males, site: colon + rectum, lesion: adenocarcinoma, dosed 103 weeks, study length 104 weeks) of the same compound?
Answer: 320 mg/kg/day

Question: And the TD50 (males, site: colon + rectum, lesion: polypoid adenoma, dosed 39 weeks, study length 66 weeks)?
Answer: 297 mg/kg/day

Question: And the TD50 (males, site: colon + rectum, lesion: polypoid adenoma, dosed 66 weeks, study length 66 weeks)?
Answer: 426 mg/kg/day

Question: And the TD50 (males, site: colon + rectum, lesion: polypoid adenoma, dosed 103 weeks, study length 104 weeks)?
Answer: 64.3 mg/kg/day

Question: And the TD50 (males, site: colon, lesion: adenocarcinoma, dosed 103 weeks, study length 104 weeks)?
Answer: 2010 mg/kg/day

Question: And the TD50 (males, site: colon, lesion: polypoid adenoma, dosed 103 weeks, study length 104 weeks)?
Answer: 1660 mg/kg/day

Question: What about the TD50 (males, site: kidney, lesion: tubule adenoma + tubule carcinoma, dosed 39 weeks, study length 66 weeks) of the same compound?
Answer: 239 mg/kg/day

Question: And the TD50 (males, site: kidney, lesion: tubule adenoma + tubule carcinoma, dosed 66 weeks, study length 66 weeks)?
Answer: 1770 mg/kg/day

Question: What about the TD50 (males, site: kidney, lesion: tubule adenoma + tubule carcinoma, dosed 103 weeks, study length 104 weeks) of the same compound?
Answer: 264 mg/kg/day

Question: And the TD50 (males, site: kidney, lesion: tubule adenoma, dosed 39 weeks, study length 66 weeks)?
Answer: 239 mg/kg/day

Question: What about the TD50 (males, site: kidney, lesion: tubule adenoma, dosed 66 weeks, study length 66 weeks) of the same compound?
Answer: 1770 mg/kg/day

Question: And the TD50 (males, site: kidney, lesion: tubule adenoma, dosed 103 weeks, study length 104 weeks)?
Answer: 292 mg/kg/day

Question: And the TD50 (males, site: liver, lesion: hepatocellular adenoma + hepatoblastoma + hepatocellular carcinoma, dosed 39 weeks, study length 66 weeks)?
Answer: 70.3 mg/kg/day

Question: And the TD50 (males, site: liver, lesion: hepatocellular adenoma + hepatoblastoma + hepatocellular carcinoma, dosed 66 weeks, study length 66 weeks)?
Answer: 102 mg/kg/day

Question: And the TD50 (males, site: liver, lesion: hepatocellular adenoma + hepatoblastoma + hepatocellular carcinoma, dosed 103 weeks, study length 104 weeks)?
Answer: 53.8 mg/kg/day

Question: And the TD50 (males, site: liver, lesion: hepatocellular adenoma + hepatocellular carcinoma, dosed 39 weeks, study length 66 weeks)?
Answer: 70.3 mg/kg/day

Question: What about the TD50 (males, site: liver, lesion: hepatocellular adenoma + hepatocellular carcinoma, dosed 66 weeks, study length 66 weeks) of the same compound?
Answer: 102 mg/kg/day

Question: And the TD50 (males, site: liver, lesion: hepatocellular adenoma + hepatocellular carcinoma, dosed 103 weeks, study length 104 weeks)?
Answer: 53.8 mg/kg/day

Question: What about the TD50 (males, site: liver, lesion: hepatocellular adenoma, dosed 39 weeks, study length 66 weeks) of the same compound?
Answer: 97.8 mg/kg/day

Question: And the TD50 (males, site: liver, lesion: hepatocellular adenoma, dosed 66 weeks, study length 66 weeks)?
Answer: 386 mg/kg/day

Question: What about the TD50 (males, site: liver, lesion: hepatocellular adenoma, dosed 103 weeks, study length 104 weeks) of the same compound?
Answer: 71.4 mg/kg/day

Question: And the TD50 (males, site: liver, lesion: hepatocellular carcinoma, dosed 39 weeks, study length 66 weeks)?
Answer: 95.8 mg/kg/day

Question: And the TD50 (males, site: liver, lesion: hepatocellular carcinoma, dosed 66 weeks, study length 66 weeks)?
Answer: 114 mg/kg/day

Question: And the TD50 (males, site: liver, lesion: hepatocellular carcinoma, dosed 103 weeks, study length 104 weeks)?
Answer: 59.6 mg/kg/day

Question: What about the TD50 (males, site: liver, lesion: hepatocholangiocarcinoma, dosed 39 weeks, study length 66 weeks) of the same compound?
Answer: 1240 mg/kg/day

Question: What about the TD50 (males, site: liver, lesion: hepatocholangiocarcinoma, dosed 103 weeks, study length 104 weeks) of the same compound?
Answer: 1230 mg/kg/day

Question: And the TD50 (males, site: lung, lesion: alveolar/bronchiolar adenoma + alveolar/bronchiolar carcinoma, dosed 103 weeks, study length 104 weeks)?
Answer: 794 mg/kg/day

Question: And the TD50 (males, site: lung, lesion: alveolar/bronchiolar adenoma, dosed 103 weeks, study length 104 weeks)?
Answer: 1290 mg/kg/day

Question: And the TD50 (males, site: rectum, lesion: adenocarcinoma, dosed 103 weeks, study length 104 weeks)?
Answer: 363 mg/kg/day

Question: And the TD50 (males, site: rectum, lesion: polypoid adenoma, dosed 39 weeks, study length 66 weeks)?
Answer: 297 mg/kg/day

Question: What about the TD50 (males, site: rectum, lesion: polypoid adenoma, dosed 66 weeks, study length 66 weeks) of the same compound?
Answer: 426 mg/kg/day

Question: What about the TD50 (males, site: rectum, lesion: polypoid adenoma, dosed 103 weeks, study length 104 weeks) of the same compound?
Answer: 64.3 mg/kg/day

Question: And the TD50 (males, site: testis, lesion: interstitial-cell adenoma, bilateral + interstitial-cell adenoma, dosed 103 weeks, study length 104 weeks)?
Answer: 133 mg/kg/day

Question: And the TD50 (males, site: urinary bladder, lesion: transitional-cell carcinoma + transitional-cell papilloma, dosed 66 weeks, study length 66 weeks)?
Answer: 3640 mg/kg/day

Question: And the TD50 (males, site: urinary bladder, lesion: transitional-cell carcinoma + transitional-cell papilloma, dosed 103 weeks, study length 104 weeks)?
Answer: 564 mg/kg/day

Question: And the TD50 (males, site: urinary bladder, lesion: transitional-cell carcinoma, dosed 66 weeks, study length 66 weeks)?
Answer: 3640 mg/kg/day

Question: What about the TD50 (males, site: urinary bladder, lesion: transitional-cell carcinoma, dosed 103 weeks, study length 104 weeks) of the same compound?
Answer: 1790 mg/kg/day

Question: What about the TD50 (males, site: urinary bladder, lesion: transitional-cell papilloma, dosed 103 weeks, study length 104 weeks) of the same compound?
Answer: 846 mg/kg/day
